Tested on: HT-29
Experiment: Cytotoxicity against human HT-29 cells assessed as reduction in cell viability by MTT assay
Format: functional, cell-based

`Cc1c(Cl)c(=O)oc2cc(OCCn3cc(CO[C@H]4O[C@@H]5O[C@@]6(C)CC[C@H]7[C@H](C)CC[C@@H]([C@H]4C)[C@@]57OO6)nn3)ccc12` showed an IC50 of 50 nM.

`Cc1c(C)c2ccc(OCCn3cc(CO[C@H]4O[C@@H]5O[C@@]6(C)CC[C@H]7[C@H](C)CC[C@@H]([C@H]4C)[C@@]57OO6)nn3)cc2oc1=O` showed an IC50 of 50 nM.

`CCOC(=O)c1cc2ccc(OCCn3cc(CO[C@H]4O[C@@H]5O[C@@]6(C)CC[C@H]7[C@H](C)CC[C@@H]([C@H]4C)[C@@]57OO6)nn3)cc2oc1=O` showed an IC50 of 50 nM.

Molecule `C[C@H]1[C@@H](OCc2cn(CCOc3ccc4c(C(F)(F)F)cc(=O)oc4c3)nn2)O[C@@H]2O[C@@]3(C)CC[C@H]4[C@H](C)CC[C@@H]1[C@@]24OO3` has an IC50 of 50 nM.

In the case of `CCOC(=O)c1cc2ccc(OCCCn3cc(CO[C@H]4O[C@@H]5O[C@@]6(C)CC[C@H]7[C@H](C)CC[C@@H]([C@H]4C)[C@@]57OO6)nn3)cc2oc1=O`, the IC50 is reported as 1220 nM.

In the case of `Cc1c(Cl)c(=O)oc2cc(OCCCn3cc(CO[C@H]4O[C@@H]5O[C@@]6(C)CC[C@H]7[C@H](C)CC[C@@H]([C@H]4C)[C@@]57OO6)nn3)ccc12`, the IC50 is reported as 1220 nM.

In the case of `Cc1cc(=O)oc2cc(OCCn3cc(CO[C@H]4O[C@@H]5O[C@@]6(C)CC[C@H]7[C@H](C)CC[C@@H]([C@H]4C)[C@@]57OO6)nn3)ccc12`, the IC50 is reported as 50 nM.

`Cc1cc(=O)oc2cc(OCCCn3cc(CO[C@H]4O[C@@H]5O[C@@]6(C)CC[C@H]7[C@H](C)CC[C@@H]([C@H]4C)[C@@]57OO6)nn3)ccc12` showed an IC50 of 1220 nM.

In the case of `Cc1c(C)c2ccc(OCCCn3cc(CO[C@H]4O[C@@H]5O[C@@]6(C)CC[C@H]7[C@H](C)CC[C@@H]([C@H]4C)[C@@]57OO6)nn3)cc2oc1=O`, the IC50 is reported as 1220 nM.

`C[C@H]1[C@@H](OCc2cn(CCCOc3ccc4c(C(F)(F)F)cc(=O)oc4c3)nn2)O[C@@H]2O[C@@]3(C)CC[C@H]4[C@H](C)CC[C@@H]1[C@@]24OO3` showed an IC50 of 1220 nM.

`C[C@H]1[C@@H](OCCCc2cn(COc3ccc4c(C(F)(F)F)cc(=O)oc4c3)nn2)O[C@@H]2O[C@@]3(C)CC[C@H]4[C@H](C)CC[C@@H]1[C@@]24OO3` showed an IC50 of over 100000 nM.

`CCOC(=O)c1cc2ccc(OCn3cc(CCCO[C@H]4O[C@@H]5O[C@@]6(C)CC[C@H]7[C@H](C)CC[C@@H]([C@H]4C)[C@@]57OO6)nn3)cc2oc1=O` showed an IC50 of over 100000 nM.

For `Cc1c(Cl)c(=O)oc2cc(OCn3cc(CCCO[C@H]4O[C@@H]5O[C@@]6(C)CC[C@H]7[C@H](C)CC[C@@H]([C@H]4C)[C@@]57OO6)nn3)ccc12`, the IC50 was over 100000 nM.

With `Cc1cc(=O)oc2cc(OCn3cc(CCCO[C@H]4O[C@@H]5O[C@@]6(C)CC[C@H]7[C@H](C)CC[C@@H]([C@H]4C)[C@@]57OO6)nn3)ccc12` the IC50 was over 100000 nM.

Work on `Cc1c(C)c2ccc(OCn3cc(CCO[C@H]4O[C@@H]5O[C@@]6(C)CC[C@H]7[C@H](C)CC[C@@H]([C@H]4C)[C@@]57OO6)nn3)cc2oc1=O` yielded an IC50 of 2460 nM.

For `CCOC(=O)c1cc2ccc(OCn3cc(CCO[C@H]4O[C@@H]5O[C@@]6(C)CC[C@H]7[C@H](C)CC[C@@H]([C@H]4C)[C@@]57OO6)nn3)cc2oc1=O`, the IC50 was 2460 nM.

Molecule `Cc1cc(=O)oc2cc(OCn3cc(CCO[C@H]4O[C@@H]5O[C@@]6(C)CC[C@H]7[C@H](C)CC[C@@H]([C@H]4C)[C@@]57OO6)nn3)ccc12` has an IC50 of 2460 nM.

Molecule `Cc1c(C)c2ccc(OCn3cc(CCCO[C@H]4O[C@@H]5O[C@@]6(C)CC[C@H]7[C@H](C)CC[C@@H]([C@H]4C)[C@@]57OO6)nn3)cc2oc1=O` has an IC50 of over 100000 nM.

Molecule `Cc1c(Cl)c(=O)oc2cc(OCn3cc(CCO[C@H]4O[C@@H]5O[C@@]6(C)CC[C@H]7[C@H](C)CC[C@@H]([C@H]4C)[C@@]57OO6)nn3)ccc12` has an IC50 of 2460 nM.

Work on `C[C@H]1[C@@H](OCCc2cn(COc3ccc4c(C(F)(F)F)cc(=O)oc4c3)nn2)O[C@@H]2O[C@@]3(C)CC[C@H]4[C@H](C)CC[C@@H]1[C@@]24OO3` yielded an IC50 of 2460 nM.
